Laboratory results: ChEMBL document CHEMBL5728572, “Thiadiazole IRAK4 compounds” (2021)

Molecular target: T1, Interleukin-1 receptor-associated kinase 4 (Homo sapiens, UniProt Q9NWZ3)
T1 sequence (Q9NWZ3 whole entry): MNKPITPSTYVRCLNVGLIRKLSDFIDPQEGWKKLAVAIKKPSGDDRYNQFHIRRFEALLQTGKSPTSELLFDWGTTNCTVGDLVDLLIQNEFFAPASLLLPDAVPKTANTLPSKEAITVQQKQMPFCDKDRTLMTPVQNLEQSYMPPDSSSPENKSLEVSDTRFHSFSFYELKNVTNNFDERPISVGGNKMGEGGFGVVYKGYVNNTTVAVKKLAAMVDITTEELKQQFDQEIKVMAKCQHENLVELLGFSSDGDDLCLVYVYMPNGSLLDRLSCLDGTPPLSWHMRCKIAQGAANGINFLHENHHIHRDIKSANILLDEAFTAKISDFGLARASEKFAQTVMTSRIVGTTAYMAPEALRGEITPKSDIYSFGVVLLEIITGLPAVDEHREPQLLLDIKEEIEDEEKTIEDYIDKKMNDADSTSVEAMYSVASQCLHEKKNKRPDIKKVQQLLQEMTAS
Assay: IRAK4 Biochemical Assay: IRAK4 enzyme (Carna Biosciences, Chuo-ku, Kobe, Japan) activity was measured by detecting phosphorylated peptide substrate formation using an antibody against the phosphorylated peptide substrate. This is a time-resolved fluorescence resonance energy transfer (TR-FRET) immunoassay, based on the STK1 KinEASE Assay (Cisbio, Bedford, Mass.). The assay was designed as a simple two-step, endpoint assay (a 5 μl enzyme reaction followed by 5 μl stop and detect Solution) performed in ProxiPlate-384 Plus plates (Perkin Elmer, Waltham, Mass.). Staurosporine, a non-selective kinase inhibitor was used as a positive control. Compounds diluted in DMSO were spotted into 384 well plates using a Labcyte® Echo 550 Liquid Handling System prior to addition of IRAK4 enzyme and peptide substrate. Reaction solutions were delivered using a Multi-Flo (Bio-Tek Instruments). The enzyme and peptide solution was incubated with compound for 15 minutes at room temp before the reaction was initiated by the addition of ATP. The standard 5 μl reaction mixture contained 500 μM ATP, […] (STK1 Peptide), 0.75 nM of IRAK4 in reaction buffer (50 mM HEPES, pH 7.0, 0.02% NaN3, 0.01% BSA, 0.1 mM Orthovanadate, 5 mM […], 0.025% NP-40, 1 mM DTT). […]

## CC(C)Nc1cc(-c2ccc3cc(C#N)cnn23)ncc1-c1nnc(N2CCCC2)s1
  IC50: 1.8 nM
